# pIC50: −log10 of the molar value.
# Tests used:
# [1] = system: SKMEL2 (human melanoma); assay: Methylene blue growth inhibition assay (Assay 2), SKMEL2; assay type: cell-based; details: SK-MEL-2, 72 h, B-Raf wt, [Q61R]N-Ras, 3 days, read-out: IC50 cell growth, SKMEL2
# [2] = system: Colo205 (colon carcinoma); assay: Methylene blue growth inhibition assay (Assay 2), Colo205; assay type: cell-based; details: Homo sapiens, COLO 205, 72 h, colorectal cancer, B-Raf V599E, Ras wt, 3 days, read-out: IC50 cell growth, Colo205
# [3] = system: A375P (human melanoma); assay: Methylene blue growth inhibition assay (Assay 2), A375P; assay type: cell-based; details: 72 h, B-Raf V599E, Ras wt, 3 days, read-out: IC50 cell growth, A375P
# [4] = system: Colo201 (human colon carcinoma); assay: XTT 72 hr growth inhibition (Assay 3), Colo201; assay type: cell-based; details: COLO 201, colorectal cancer, B-Raf status ND, Ras ND, read-out: IC50 cell viability, Colo201
# Method: XTT 72 Hr Growth Inhibition Protocol for Mammalian Cultured Cells (Assay 3)
# Human diploid foreskin fibroblasts (HFF) or human colon carcinoma (Colo 201) cells were grown in Dulbecco's modified Eagle's medium (DMEM) (kvitrogen/Life Technologies) containing 10% fetal bovine serum (FBS) and the antibiotics penicillin (100 Units/ml) and streotomycin (100 microgramnis/ml) (Invitrogen/Life Technologies). Growth was at 37° C. in humidified 5% CO2 incubators in 75 cm^2 plastic flasks. Cells were harvested using 0.25% trypsin/1 mM ethylenediaminetetraacetic acid (EDTA), resuspended in growth medium, and counted using a hemocytometer. Flat-bottomed 96-well plates were seeded with 2×10^3 cells/well in a volume of 200 ul from trypsinized exponentially growing cultures. To “blank” wells, growth medium was added with no additions. Cells were incubated overnight to permit attachment.
# Next day, medium from wells that contained cells was replaced with 180 microliters of fresh medium. Appropriate dilutions of test compounds were added to the wells from stock soloutions of compound dissolved in dimethyl sulfoxide (DMSO); final DMSO concentration in all wells was 0.2%. […] Absorbance at 450 nm was then determined using a 96-well UV plate reader (Molecular Devices). Under these conditions, absorbance of untreated control cells at […] was at least 1.0 optical density unit/ml. […]
# [5] = system: SKMEL3 (human melanoma); assay: Methylene blue growth inhibition assay (Assay 2), SKMEL3; assay type: cell-based; details: SK-MEL3, 72 h, B-Raf V599E, Ras wt, 3 days, read-out: IC50 cell growth, SKMEL3
# [6] = molecular target: B-Raf (Homo sapiens, UniProt P15056); assay: Fluorescence anisotropy kinase binding assay (Assay 1)
# B-Raf, sequence (P15056 whole entry): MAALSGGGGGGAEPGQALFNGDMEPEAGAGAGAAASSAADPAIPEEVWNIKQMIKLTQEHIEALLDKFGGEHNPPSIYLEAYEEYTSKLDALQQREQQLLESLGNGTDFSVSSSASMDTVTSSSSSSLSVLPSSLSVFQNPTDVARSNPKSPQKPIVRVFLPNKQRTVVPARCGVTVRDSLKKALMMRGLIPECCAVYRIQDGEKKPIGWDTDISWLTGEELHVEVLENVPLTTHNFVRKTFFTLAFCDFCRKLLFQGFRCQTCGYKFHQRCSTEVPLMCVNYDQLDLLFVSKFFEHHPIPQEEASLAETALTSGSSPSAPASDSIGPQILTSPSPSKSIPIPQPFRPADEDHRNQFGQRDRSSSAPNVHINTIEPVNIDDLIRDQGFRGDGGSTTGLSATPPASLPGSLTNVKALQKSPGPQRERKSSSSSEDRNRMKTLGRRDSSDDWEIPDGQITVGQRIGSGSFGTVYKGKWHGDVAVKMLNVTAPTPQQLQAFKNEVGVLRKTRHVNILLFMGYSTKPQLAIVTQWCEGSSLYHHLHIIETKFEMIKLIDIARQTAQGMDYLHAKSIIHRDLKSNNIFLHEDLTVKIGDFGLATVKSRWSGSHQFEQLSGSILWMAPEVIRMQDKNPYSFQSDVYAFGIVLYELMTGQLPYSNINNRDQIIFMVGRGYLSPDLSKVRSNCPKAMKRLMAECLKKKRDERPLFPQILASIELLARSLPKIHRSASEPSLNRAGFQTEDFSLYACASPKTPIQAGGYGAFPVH
# Excerpt: The activity of compounds of formula (I) as B-Raf inhibitors may be determined by the following in vitro assay:
# Fluorescence Anisoptrophy Kinase Binding Assay
# The concentration of kinase enzyme should preferably be >1×Kf. The concentration of fluorescent ligand required will depend on the instrumentation used, and the fluorescent and physicochemical properties. The concentration used must be lower than the concentration of kinase enzyme, and preferably less than half the kinase enzyme concentration. A typical protocol is:
# All compounds are serially diluted in DMSO, then by a one step dilution into buffer of comparison, 50 mM HEPES, […] pH7.5, 1 mM CHAPS, 10 mM MgCL2, for the assay.
# B-Raf Enzyme concentration: 1 nM
# Fluorescent ligand concentration: 0.5 nM
# Test compound concentration: 0.5 nM-100 uM
# Components incubated in 10 ul final volume in LJL HE 384 type B black microtitre plate until equilibrium reached (Over 3 h, up to 30 h)
# Fluorescence anisotropy read in an LJL Acquest fluorescence reader.
# Definitions: Ki=dissociation constant for inhibitor binding
# • Kf=dissociation constant for fluorescent ligand binding
# The fluorescent ligand is the following compound:
# which is derived from 5-[2(4aminomethylphenyl)-5-pyridin-4-yl-1H-imidazolyl-4-yl]-2-chlorophenol and rhodamine green.
# [7] = system: HFF (normal human foreskin fibroblasts); assay: Methylene blue growth inhibition assay (Assay 2), HFF; assay type: cell-based; details: Fibroblast, 72 h, B-Raf wt, Ras wt, 3 days, read-out: IC50 cell growth, HFF
compound,measurement,setting,value
"CN(C)CCOc1ccc(-c2cc(-c3ccc(Cl)c(O)c3)c(-c3ccncc3)o2)cc1 [Example 3, 2-Chloro-5-{5-[4-(2-dimethylamino-ethoxy)-phenyl]-2-pyridin-4-yl-furan-3-yl}-phenol]",pIC50,[1],< 5.85
same,pIC50,[2],5.03
same,pIC50,[3],5.64
same,pIC50,[4],5.35
same,pIC50,[5],6.05
same,Kd,[6],3 nM
same,pIC50,[7],< 4.52
